Reference: the NIST ThermoML archive (doi:10.1016/j.jct.2014.03.009)
± gives the expanded uncertainty stated by the source.

Conditions: 298 K; 101.33 kPa; Crystal; X-ray diffraction

mass density: 1713 ± 8 kg/m3
SMILES: O.O.O.O.O=C([O-])[C@H](O)[C@@H](O)[C@H](O)[C@H](O)CO.O=C([O-])[C@H](O)[C@@H](O)[C@H](O)[C@H](O)CO.[Mn+2] [manganese(II) D-gluconate tetrahydrate]
